Results as given in ChEMBL document CHEMBL3621057, “Multicomponent Synthesis and Biological Evaluation of a Piperazine-Based Dopamine Receptor Ligand Library” (ACS Med Chem Lett, 2015).
pKi: −log10 of the molar value. One block for each compound: values may come before it. Active and inactive are the calls of the source. The rule behind the calls is not given here.

Legend:
D(2) dopamine receptor [1] = target: T1, D(2) dopamine receptor (Homo sapiens, UniProt P14416); assay: Displacement of [3H]spiperone from human dopamine D2L receptor expressed in CHO cells; format: cell-based
D(3) dopamine receptor = D(3) dopamine receptor (Homo sapiens, UniProt P35462); assay: Displacement of [3H]spiperone from human dopamine D3 receptor expressed in CHO cells; format: cell-based
D(2) dopamine receptor [2] = target: T1, D(2) dopamine receptor; assay: Displacement of [3H]spiperone from human dopamine D2S receptor expressed in CHO cells; format: cell-based
D(1A) dopamine receptor = D(1A) dopamine receptor (Homo sapiens, UniProt P21728); assay: Displacement of [3H]SCH23390 from human dopamine D1 receptor expressed in HEK cells; format: cell-based, HEK293
D(1B) dopamine receptor = D(1B) dopamine receptor (Homo sapiens, UniProt P21918); assay: Displacement of [3H]SCH23390 from human dopamine D5 receptor expressed in HEK cells; format: cell-based, HEK293
D(4) dopamine receptor = target: T2, D(4) dopamine receptor (Homo sapiens, UniProt P21917); assay: Displacement of [3H]spiperone from human dopamine D4 receptor expressed in CHO cells; format: cell-based
T2 sequence (P21917 whole entry): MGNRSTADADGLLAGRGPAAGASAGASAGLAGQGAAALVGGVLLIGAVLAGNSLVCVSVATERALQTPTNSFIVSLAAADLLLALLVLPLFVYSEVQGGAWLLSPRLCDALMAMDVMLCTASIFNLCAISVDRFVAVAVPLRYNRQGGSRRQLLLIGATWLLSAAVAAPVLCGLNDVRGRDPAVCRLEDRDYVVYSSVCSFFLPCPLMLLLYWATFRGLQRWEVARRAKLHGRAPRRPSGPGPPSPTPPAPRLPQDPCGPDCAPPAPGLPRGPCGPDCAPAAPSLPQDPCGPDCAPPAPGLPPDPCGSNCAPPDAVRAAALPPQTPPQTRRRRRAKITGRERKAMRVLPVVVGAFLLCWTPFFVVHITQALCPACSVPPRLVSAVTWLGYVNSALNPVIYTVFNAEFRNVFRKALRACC

D(2) dopamine receptor [3] = target: T1, D(2) dopamine receptor; assay: Antagonist activity at human D2S receptor transfected in HEK293T cells assessed as forskolin-induced cAMP accumulation by BRET assay; format: functional, cell-based; conditions: HEK-293T

T1 sequence (P14416 whole entry): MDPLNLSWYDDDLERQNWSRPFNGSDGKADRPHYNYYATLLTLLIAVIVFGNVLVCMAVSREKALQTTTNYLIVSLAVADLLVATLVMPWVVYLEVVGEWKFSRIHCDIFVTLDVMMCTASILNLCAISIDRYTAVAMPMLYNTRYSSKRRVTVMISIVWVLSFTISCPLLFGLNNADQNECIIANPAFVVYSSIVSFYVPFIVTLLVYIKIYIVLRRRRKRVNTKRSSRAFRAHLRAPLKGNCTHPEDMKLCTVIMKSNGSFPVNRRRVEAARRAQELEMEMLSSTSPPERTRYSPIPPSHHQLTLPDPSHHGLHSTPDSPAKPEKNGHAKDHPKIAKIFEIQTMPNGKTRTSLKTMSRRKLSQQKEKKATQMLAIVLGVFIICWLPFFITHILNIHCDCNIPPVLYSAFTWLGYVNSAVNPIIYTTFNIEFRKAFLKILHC
D(3) dopamine receptor, sequence (P35462 whole entry): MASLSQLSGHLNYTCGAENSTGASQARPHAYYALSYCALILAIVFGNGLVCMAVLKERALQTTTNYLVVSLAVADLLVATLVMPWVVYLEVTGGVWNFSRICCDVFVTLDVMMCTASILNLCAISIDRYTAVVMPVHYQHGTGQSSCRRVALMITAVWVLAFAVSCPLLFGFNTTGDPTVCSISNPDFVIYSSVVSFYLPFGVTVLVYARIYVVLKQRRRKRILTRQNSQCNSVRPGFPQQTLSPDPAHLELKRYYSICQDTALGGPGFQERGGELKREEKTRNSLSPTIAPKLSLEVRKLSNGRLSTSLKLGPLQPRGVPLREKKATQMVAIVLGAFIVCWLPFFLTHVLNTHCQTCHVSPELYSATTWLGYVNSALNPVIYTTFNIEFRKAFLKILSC
D(1B) dopamine receptor, sequence (P21918 whole entry): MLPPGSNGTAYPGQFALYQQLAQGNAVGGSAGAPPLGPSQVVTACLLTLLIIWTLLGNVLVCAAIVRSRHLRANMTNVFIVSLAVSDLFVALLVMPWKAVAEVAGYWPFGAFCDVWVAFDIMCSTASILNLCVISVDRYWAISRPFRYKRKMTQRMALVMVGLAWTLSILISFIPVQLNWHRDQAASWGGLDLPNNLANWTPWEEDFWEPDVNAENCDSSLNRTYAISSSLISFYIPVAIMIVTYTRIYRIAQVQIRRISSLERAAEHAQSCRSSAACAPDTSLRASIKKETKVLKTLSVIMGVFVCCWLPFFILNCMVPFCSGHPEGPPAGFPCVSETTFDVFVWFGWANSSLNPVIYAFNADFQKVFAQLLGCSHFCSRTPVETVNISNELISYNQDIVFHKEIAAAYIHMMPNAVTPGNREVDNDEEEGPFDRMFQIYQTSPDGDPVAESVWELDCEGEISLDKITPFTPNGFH
D(1A) dopamine receptor, sequence (P21728 whole entry): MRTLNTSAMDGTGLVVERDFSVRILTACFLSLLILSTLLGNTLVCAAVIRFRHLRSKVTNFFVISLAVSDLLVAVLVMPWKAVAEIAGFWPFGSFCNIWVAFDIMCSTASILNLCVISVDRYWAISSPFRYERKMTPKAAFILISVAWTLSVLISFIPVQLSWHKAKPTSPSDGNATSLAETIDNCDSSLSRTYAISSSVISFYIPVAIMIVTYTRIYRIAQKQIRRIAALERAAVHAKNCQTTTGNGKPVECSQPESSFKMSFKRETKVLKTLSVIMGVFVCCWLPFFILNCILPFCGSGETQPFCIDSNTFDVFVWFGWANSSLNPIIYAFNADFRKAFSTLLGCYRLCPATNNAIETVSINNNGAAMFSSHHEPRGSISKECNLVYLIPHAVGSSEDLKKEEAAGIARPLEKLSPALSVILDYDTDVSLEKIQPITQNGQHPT

Structure (SMILES): CCCN(CCN1CCN(Cc2cc3ccccc3[nH]2)CC1)Cc1ccc(OC)cc1
pKi (D(2) dopamine receptor [1]): 5.39
pKi (D(3) dopamine receptor): 5.34

Structure (SMILES): Brc1ccc(NCCN2CCN(CCc3c[nH]c4ccccc34)CC2)cc1
pKi (D(2) dopamine receptor [1]): 7.28
pKi (D(3) dopamine receptor): 6.70
pKi (D(2) dopamine receptor [2]): 7.32
pKi (D(1A) dopamine receptor): 6.32
pKi (D(1B) dopamine receptor): 5.44
pKi (D(4) dopamine receptor): 7.70
Activity (D(2) dopamine receptor [3]): Active

Structure (SMILES): COc1ccc(NCCN2CCN(CCc3c[nH]c4ccccc34)CC2)cc1
pKi (D(2) dopamine receptor [1]): 6.37
pKi (D(3) dopamine receptor): 6.21

Structure (SMILES): Brc1ccc(NCCN2CCN(Cc3cc4ccccc4[nH]3)CC2)cc1
pKi (D(2) dopamine receptor [1]): 6.04
pKi (D(3) dopamine receptor): 5.64

Structure (SMILES): COc1ccc(CNCCN2CCN(Cc3cc4ccccc4[nH]3)CC2)cc1
pKi (D(2) dopamine receptor [1]): 5.40
pKi (D(3) dopamine receptor): 5.37

Structure (SMILES): CCCN(CCN1CCN(Cc2cc3ccccc3[nH]2)CC1)Cc1ccc(Br)cc1
pKi (D(2) dopamine receptor [1]): 6.04
pKi (D(3) dopamine receptor): 6.03

Structure (SMILES): CCCN(CCN1CCN(CCc2c[nH]c3ccccc23)CC1)c1ccc(OC)cc1
pKi (D(2) dopamine receptor [1]): 6.92
pKi (D(3) dopamine receptor): 6.55

Structure (SMILES): CCCN(CCN1CCN(CCc2c[nH]c3ccccc23)CC1)c1ccc(Br)cc1
pKi (D(2) dopamine receptor [1]): 7.24
pKi (D(3) dopamine receptor): 7.05
pKi (D(2) dopamine receptor [2]): 7.29
pKi (D(1A) dopamine receptor): 6.60
pKi (D(1B) dopamine receptor): 5.89
pKi (D(4) dopamine receptor): 9.14
Activity (D(2) dopamine receptor [3]): Active

Other lines, results leading:

pKi (D(2) dopamine receptor [1]): 6.66
pKi (D(3) dopamine receptor): 6.22
Structure (SMILES): CCCN(CCN1CCN(Cc2cc3ccccc3[nH]2)CC1)c1ccc(Br)cc1

pKi (D(2) dopamine receptor [1]): 6.28
pKi (D(3) dopamine receptor): 5.89
Structure (SMILES): CCCN(CCN1CCN(Cc2cc3ccccc3[nH]2)CC1)c1ccc(OC)cc1

pKi (D(2) dopamine receptor [1]): 5.28
pKi (D(3) dopamine receptor): 5.74
Structure (SMILES): Brc1ccc(CNCCN2CCN(Cc3cc4ccccc4[nH]3)CC2)cc1

pKi (D(2) dopamine receptor [1]): 5.12
pKi (D(3) dopamine receptor): 4.74
Structure (SMILES): COc1ccc(NCCN2CCN(Cc3cc4ccccc4[nH]3)CC2)cc1
